From patent publication US20230031406A1, “COMPOUNDS AND COMPOSITIONS FOR TREATING CONDITIONS ASSOCIATED WITH NLRP ACTIVITY” (Novartis AG, priority 2018, published 2023)
Where two headings read alike, the source gives them in different places. One block for each compound: values may come before it.

Tested on: PMA-differentiated THP-1 cells
Experiment: IL-1β production in PMA-differentiated THP-1 cells stimulated with gramicidin (hTHP-1 assay containing 2% fetal bovine serum; Procedures 1 and 2)
Format: cell-based, human
Conditions: 2% fetal bovine serum
Summary of the method: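 PMA-primed (20 ng/ml, 16-18 h) THP-1 cells in RPMI with 2% FBS, 50,000 cells/well, were preincubated 1 h with compound (0.0017-100 μM final, 0.37% DMSO), then stimulated 2 h with 5 μM gramicidin. Supernatant IL-1β measured by HTRF.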

[1] = Homo sapiens, THP-1, Table B3, hTHP-1 assay, class symbols, read-out: IC50
[2] = Table B1, class symbols, read-out: Average IC50 of compounds in hTHP-1 assay: hTHP-1 IC50
[3] = Homo sapiens, THP-1, Table B1, class symbols, read-out: Average IC50 of compounds in hTHP-1 assay: hTHP-1 IC50
[4] = Table B2, class symbols, read-out: hTHP-1 IC50
[5] = Homo sapiens, THP-1, Table B2, class symbols, read-out: hTHP-1 IC50
[6] = Homo sapiens, THP-1, Table B4, class symbols, read-out: hTHP-1 IC50

IC50 (Homo sapiens, THP-1, Table B2, numeric bounds, read-out: hTHP-1 IC50): > 30 µM
Compound: CC(C)n1cc(Cl)c(S(N)(=O)=NC(=O)Nc2c3c(nc4c2CCC4)CCC3)n1 (single isomer, unassigned) [Compound 694a, (S) or (R)-4-Chloro-N′-((1,2,3,5,6,7-hexahydrodicyclopenta [b,e]pyridin-8-yl)carbamoyl)-1-isopropyl-1H-pyrazole-3-sulfonimidamide]

IC50 [1]: 1 to 5 µM
Compound: Cc1c(C2(F)CC2)nc2c(c1NC(=O)N=S(N)(=O)c1sc(C(C)(C)O)cc1F)CCC2 (centres unmarked) [Example 612, 3-Fluoro-N′-((2-(1-fluorocyclopropyl)-3-methyl-6,7-dihydro-5H-cyclopenta[b]pyridin-4-yl)carbamoyl)-5-(2-hydroxypropan-2-yl)thiophene-2-sulfonimidamide]

IC50 [2]: 0.2 to 1 µM
Compound: Cc1sc(S(N)(=O)=NC(=O)Nc2c3c(nc4c2CCC4C)CCC3)nc1C(C)(C)O (single isomer, unassigned) [Compound 104a, (R,R/S) or (S,R/S)-4-(2-hydroxypropan-2-yl)-5-methyl-N′-((3-methyl-1,2,3,5,6,7-hexahydrodicyclo-penta[b,e]pyridin-8-yl)carba-moyl)thiazole-2-sulfonimidamide]

IC50 [2]: 5 to 30 µM
Compound: Cc1sc(S(N)(=O)=NC(=O)Nc2c3c(nc4c2CCC4)CCC3)cc1C(C)(C)O (single isomer, unassigned) [Compound 107b, (S) or (R)-N′-((1,2,3,5,6,7-hexahydrodicyclo-penta[b,e]pyridin-8-yl)carbamoyl)-4-(2-hydroxypropan-2-yl)-5-methylthiophene-2-sulfonimidamide]

IC50 [3]: 0.04 to 0.2 µM
Compound: CC(C)(O)c1csc(S(N)(=O)=NC(=O)Nc2c3c(nc4c2CCC4)CCC3)c1 (centres unmarked) [Compound 155, N′-((1,2,3,5,6,7-hexahydrodicyclopenta[b,e]pyridin-8-yl)carbamoyl)-4-(2-hydroxypropan-2-yl)thiophene-2-sulfonimidamide]

IC50 [4]: 5 to 30 µM
Compound: C[C@@H]1CCc2c1nc1c(c2NC(=O)N=S(N)(=O)c2ccn(C(C)(F)F)n2)CCC1 (single isomer, unassigned) [Compound 723a, (S) or (R)-1-(1,1-Difluoroethyl)-N′-(((R)-3-methyl-1,2,3,5,6,7-hexahydrodicyclopenta[b, e]pyridin-8-yl)carbamoyl)-1H-pyrazole-3-sulfonimidamide]

IC50 [1]: 5 to 30 µM
Compound: C[C@](O)(CO)c1cc(F)c([S@@](N)(=O)=NC(=O)Nc2c3c(nc4c2CCC42CC2)CCC3)s1 [Example 677, (S)-5-((S)-1,2-dihydroxypropan-2-yl)-3-fluoro-N′-((1′,5′,6′,7′-tetrahydro-2′H-spiro[cyclopropane-1,3′-dicyclopenta[b,e]pyridin]-8′-yl)carbamoyl)thiophene-2-sulfonimidamide]

IC50 [5]: 1 to 5 µM
Compound: Cc1c(C2(F)CC2)nc2c(c1NC(=O)N=S(N)(=O)c1cc(C(C)(C)O)cs1)CCC2 (centres unmarked) [Compound 722]

IC50 [2]: 5 to 30 µM
Compound: Cc1sc(S(N)(=O)=NC(=O)Nc2c3c(nc4c2CCC4C)CCC3)nc1C(C)(C)O (single isomer, unassigned) [Compound 104b, (S,R/S) or (R,R/S)-4-(2-hydroxypropan-2-yl)-5-methyl-N′-((3-methyl-1,2,3,5,6,7-hexahydrodicyclo-penta[b,e]pyridin-8-yl)carbamoyl)thiazole-2-sulfonimidamide]

IC50 [2]: 5 to 30 µM
Compound: CC(C)n1ccc(S(N)(=O)=NC(=O)Nc2c3c(nc4c2CCC4(C)C)CCC3)n1 (single isomer, unassigned) [Compound 126b, (S) or (R)-N′-((3,3-dimethyl-1,2,3,5,6,7-hexahydro-dicyclopenta[b,e]pyridin-8-yl)carbamoyl)-1-isopropyl-1H-pyrazole-3-sulfonimidamide]

IC50 [4]: 5 to 30 µM
Compound: CC(C)(O)c1csc(S(N)(=O)=NC(=O)Nc2c3c(nc(C4CC4)c2C2CC2)CCC3)c1 (single isomer, unassigned) [Compound 670a, (S) or (R)-N′-((2,3-dicyclopropyl-6,7-dihydro-5H-cyclopenta[b]pyridin-4-yl)carbamoyl)-4-(2-hydroxypropan-2-yl)thiophene-2-sulfonimidamide]

IC50 (Homo sapiens, THP-1, Table B1, numeric bounds, read-out: Average IC50 of compounds in hTHP-1 assay: hTHP-1 IC50): > 30 µM
Compound: Cc1nc(C)c(C)c(NC(=O)N=S(N)(=O)c2cnc(C(C)(C)O)s2)c1C (single isomer, unassigned) [Compound 133a, (R) or (S)-2-(2-hydroxypropan-2-yl)-N′-((2,3,5,6-tetramethylpyridin-4-yl)carbamoyl)thiazole-5-sulfonimidamide]

IC50 [4]: 5 to 30 µM
Compound: CCc1c(C(F)(F)F)nc2c(c1NC(=O)N=S(N)(=O)c1sc(C(C)(C)O)cc1F)CCC2 (single isomer, unassigned) [Compound 611a, (S) or (R)-N′-((3-ethyl-2-(trifluoromethyl)-6,7-dihydro-5H-cyclopenta[b]pyridin-4-yl)carbamoyl)-3-fluoro-5-(2-hydroxypropan-2-yl)thiophene-2-sulfonimidamide]

IC50 [5]: 5 to 30 µM
Compound: Cc1c(C2(C)CC2)nc2c(c1NC(=O)N=S(N)(=O)c1cnc(C(C)(C)O)s1)CCC2 (centres unmarked) [Compound 641, 2-(2-Hydroxypropan-2-yl)-N′-((3-methyl-2-(1-methylcyclopropyl)-6,7-dihydro-5H-cyclopenta[b]pyridin-4-yl)carbamoyl)thiazole-5-sulfonimidamide]

IC50 [5]: 1 to 5 µM
Compound: CC(C)n1cc(Cl)c(S(N)(=O)=NC(=O)Nc2c3c(nc4c2CCC4)CCC3)n1 (centres unmarked) [Compound 694, 4-Chloro-N′-((1,2,3,5,6,7-hexahydrodicyclopenta[b,e]pyridin-8-yl)carbamoyl)-1-isopropyl-1H-pyrazole-3-sulfonimidamide]

IC50 [4]: 5 to 30 µM
Compound: COCc1nc(C(C)(C)O)sc1S(N)(=O)=NC(=O)Nc1c2c(nc3c1CCC3(C)C)CCC2 (single isomer, unassigned) [Compound 170b, (S) or (R)-N′-((3,3-dimethyl-1,2,3,5,6,7-hexahydrodicyclopenta [b,e]pyridin-8-yl)carbamoyl)-2-(2-hydroxypropan-2-yl)-4-(methoxymethyl) thiazole-5-sulfonimidamide]

IC50 [1]: 1 to 5 µM
Compound: CC1(C)CCc2c1nc1c(c2NC(=O)N=S(N)(=O)c2sc([C@@](C)(O)CO)nc2CO)CCC1 (stereo partly drawn) [Example 599, 2-((S)-1,2-dihydroxypropan-2-yl)-N′-((3,3-dimethyl-1,2,3,5,6,7-hexahydrodicyclopenta[b,e]pyridin-8-yl)carbamoyl)-4-(hydroxymethyl)thiazole-5-sulfonimidamide]

IC50 [2]: 0.04 to 0.2 µM
Compound: CC1CCc2c1nc1c(c2NC(=O)N=S(N)(=O)c2ncc(C(C)(C)O)s2)CCC1 (centres unmarked) [Compound 140, 5-(2-hydroxypropan-2-yl)-N′-((3-methyl-1,2,3,5,6,7-hexahydrodicyclopenta[b,e]pyridin-8-yl)carbamoyl)thiazole-2-sulfonimidamide]

IC50 [3]: 0.2 to 1 µM
Compound: CC(C)c1csc(S(N)(=O)=NC(=O)Nc2c3c(nc4c2CCC4)CCC3)c1 (single isomer, unassigned) [Compound 173a, (R) or (S)-N′-((1,2,3,5,6,7-hexahydrodicyclo-penta[b,e]pyridin-8-yl)carbamoyl)-4-isopropylthiophene-2-sulfonimidamide]

IC50 [2]: 5 to 30 µM
Compound: CC1CCc2c1nc1c(c2NC(=O)N=S(N)(=O)c2sc(C(C)(C)O)nc2CO)CCC1 (single isomer, unassigned) [Compound 168aa, (S,S) or (S,R)-4-(hydroxymethyl)-2-(2-hydroxypropan-2-yl)-N′-((3-methyl-1,2,3,5,6,7-hexahydrodicyclo-penta[b,e]pyridin-8-yl)carbamoyl)thiazole-5-sulfonimidamide]

IC50 [2]: 5 to 30 µM
Compound: CC1CCc2c1nc1c(c2NC(=O)N=S(N)(=O)c2ccn(C(F)F)n2)CCC1 (single isomer, unassigned) [Compound 184c, (R,S) or (R,R)-1-(difluoro-methyl)-N′-((3-methyl-1,2,3,5,6,7-hexahydro-dicyclopenta[b,e]pyridin-8-yl)carbamoyl)-1H-pyrazole-3-sulfonimidamide]

IC50 [6]: 0.008 to 0.04 µM
Compound: CCn1cc(F)c(S(N)(=O)=NC(=O)Nc2c3c(nc(C(F)(F)F)c2-c2ccccc2)CCC3)n1 (centres unmarked) [Example 742, 1-Ethyl-4-fluoro-N′-((3-phenyl-2-(trifluoromethyl)-6,7-dihydro-5H-cyclopenta[b]pyridin-4-yl)carbamoyl)-1H-pyrazole-3-sulfonimidamide]

IC50 [5]: 0.2 to 1 µM
Compound: CC(C)(O)c1cnc(S(N)(=O)=NC(=O)Nc2c3c(nc4c2CCC4(C)C)CCC3)s1 (centres unmarked) [Compound 686, N′-((3,3-dimethyl-1,2,3,5,6,7-hexahydrodicyclopenta[b,e]pyridin-8-yl)carbamoyl)-5-(2-hydroxypropan-2-yl)thiazole-2-sulfonimidamide]

IC50 [2]: 0.04 to 0.2 µM
Compound: CC1CCc2c1nc1c(c2NC(=O)N=S(N)(=O)c2ncc(C(C)(C)O)s2)CCC1 (single isomer, unassigned) [Compound 140a, (R,R/S) or (S,R/S)-5-(2-hydroxypropan-2-yl)-N′-((3-methyl-1,2,3,5,6,7-hexa-hydrodicyclo-penta[b,e]pyridin-8-yl)carbamoyl)thiazole-2-sulfonimidamide]

IC50 [6]: 0.2 to 1 µM
Compound: C[C@@H]1CCc2c1nc1c(c2NC(=O)N=S(N)(=O)c2nn(-c3ccccc3)cc2F)CCC1 (stereo partly drawn) [Example 748, 4-Fluoro-N′-(((R)-3-methyl-1,2,3,5,6,7-hexahydrodicyclopenta [b, e]pyridin-8-yl)carbamoyl)-1-phenyl-1H-pyrazole-3-sulfonimidamide]

IC50 [5]: 0.2 to 1 µM
Compound: CCc1c(C(F)(F)F)nc2c(c1NC(=O)N=S(N)(=O)c1sc(C(C)(C)O)cc1F)CCC2 (centres unmarked) [Compound 611, N′-((3-ethyl-2-(trifluoromethyl)-6,7-dihydro-5H-cyclopenta[b]pyridin-4-yl)carbamoyl)-3-fluoro-5-(2-hydroxypropan-2-yl)thiophene-2-sulfonimidamide]
